Laboratory results from patent US6734199B1, “Substituted benzylthiazolidine-2, 4-dione derivatives” (Kyorin Pharmaceutical Co., Ltd., priority 1999, dated 2004).
Where two headings read alike, the source gives them in different places.

Assays:
[1] = biological target: T1, human type PPAR α ligand-binding domain fused with yeast transcription factor DNA-binding domain (Homo sapiens, UniProt Q07869); assay: Test of transactivation on peroxisome proliferator-activated receptor α (GAL4 DNA-binding domain/PPAR ligand-binding domain reporter in CHO cells)
T1 sequence (Q07869 239-466 limits assumed): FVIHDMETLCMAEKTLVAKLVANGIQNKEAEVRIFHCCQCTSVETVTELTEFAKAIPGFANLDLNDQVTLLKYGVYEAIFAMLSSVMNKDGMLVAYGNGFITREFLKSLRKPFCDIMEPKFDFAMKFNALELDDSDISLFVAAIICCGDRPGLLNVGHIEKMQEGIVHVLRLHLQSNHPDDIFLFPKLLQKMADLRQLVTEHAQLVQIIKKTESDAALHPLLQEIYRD
Protocol: (§1) Test of Transactivation on Peroxisome Proliferator-activated Receptors α and γ
(§2) After 24 hours, CAT activity and β-galactosidase activity were measured.

[2] = biological target: T2, human type PPAR γ ligand-binding domain fused with yeast transcription factor DNA-binding domain (Homo sapiens, UniProt P37231); assay: Test of transactivation on peroxisome proliferator-activated receptor γ (GAL4 DNA-binding domain/PPAR ligand-binding domain reporter in CHO cells)
T2 sequence (P37231 238-503 limits assumed): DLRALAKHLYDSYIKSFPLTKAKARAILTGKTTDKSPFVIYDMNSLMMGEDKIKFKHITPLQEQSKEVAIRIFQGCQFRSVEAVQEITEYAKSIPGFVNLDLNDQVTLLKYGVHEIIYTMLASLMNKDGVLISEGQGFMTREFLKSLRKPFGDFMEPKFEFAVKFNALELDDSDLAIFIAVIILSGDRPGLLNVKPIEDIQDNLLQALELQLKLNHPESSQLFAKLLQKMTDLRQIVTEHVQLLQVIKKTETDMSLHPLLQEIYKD
Protocol: as §1, §2

With `COc1ccc(CC2SC(=O)NC2=O)cc1C(=O)NCc1ccc(-c2ccccc2)cc1` (stereo not drawn) [Example 2, N-[(Biphenyl-4-yl)Methyl]-5-[(2.4-Dioxothiazolidin-5-yl)Methyl]-2-Methloybenzamide] the melting point was 170.5 to 172 °C, the EC50 [1] was 630 nM and the EC50 [2] was 6800 nM.
`CCCCC/C=C\C/C=C\C=C\[C@@H](O)C/C=C\CCCC(=O)O` [(8S)-HETE, reference compound] gave an EC50 ([1]; read-out: Transactivation action PPARα EC50, CHO cells, 24 hours, CAT activity with β-galactosidase internal standard) of 1300 nM.
`COc1ccc(CC2SC(=O)NC2=O)cc1C(=O)NCc1ccc(Oc2ccccc2)cc1` (stereo not drawn) [Example 3] gave an EC50 [1] of 240 nM and an EC50 [2] of 240 nM.
With `COc1ccc(CC2SC(=O)NC2=O)cc1C(=O)NCc1ccc(Oc2ccccc2)cc1` (stereo not drawn) (hydrate or solvate) [Example 3] the melting point was 87 to 89 °C.
Work on `COc1ccc(CC2SC(=O)NC2=O)cc1C(=O)NCc1ccc(OCc2ccccc2)cc1` (stereo not drawn) [Example 1] yielded a melting point of 131 to 132.5 °C and an EC50 [1] of 440 nM.
